Reference: US20170280720A1, “ARGININE […] INHIBITORS AND USES THEREOF” (EPIZYME, INC., priority 2014, published 2017)

Tests used:
human PRMT1 = molecular target: T1, human PRMT1 (Homo sapiens, UniProt Q99873); assay: PRMT1 biochemical assay (3H-SAM Flashplate, peptide substrate); details: read-out: PRMT1_ IC50
T1 construct: GST-tagged PRMT1; made in house; host or cells: High Five insect cells (baculovirus, pFastBacI)
Outline: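 FLAG-tagged full-length human PRMT1 (0.5 nM, GST-tagged, insect-cell expressed) preincubated 30 min at RT with compound, then biotinylated histone H4 36-50 peptide (20 nM) plus 200 nM 3H-SAM and 1.5 uM SAM in Bicine pH 7.6, 2% DMSO. 3H-methylated peptide captured on streptavidin Flashplate; IC50 from 3/4-parameter fit.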

PRMT5 = PRMT5 (Homo sapiens, UniProt O14744); assay: PRMT5 IC50 (Table 2; no method described); type: biochemical; details: read-out: PRMT5_ IC50
PRMT5, sequence (O14744 whole entry, species assumed): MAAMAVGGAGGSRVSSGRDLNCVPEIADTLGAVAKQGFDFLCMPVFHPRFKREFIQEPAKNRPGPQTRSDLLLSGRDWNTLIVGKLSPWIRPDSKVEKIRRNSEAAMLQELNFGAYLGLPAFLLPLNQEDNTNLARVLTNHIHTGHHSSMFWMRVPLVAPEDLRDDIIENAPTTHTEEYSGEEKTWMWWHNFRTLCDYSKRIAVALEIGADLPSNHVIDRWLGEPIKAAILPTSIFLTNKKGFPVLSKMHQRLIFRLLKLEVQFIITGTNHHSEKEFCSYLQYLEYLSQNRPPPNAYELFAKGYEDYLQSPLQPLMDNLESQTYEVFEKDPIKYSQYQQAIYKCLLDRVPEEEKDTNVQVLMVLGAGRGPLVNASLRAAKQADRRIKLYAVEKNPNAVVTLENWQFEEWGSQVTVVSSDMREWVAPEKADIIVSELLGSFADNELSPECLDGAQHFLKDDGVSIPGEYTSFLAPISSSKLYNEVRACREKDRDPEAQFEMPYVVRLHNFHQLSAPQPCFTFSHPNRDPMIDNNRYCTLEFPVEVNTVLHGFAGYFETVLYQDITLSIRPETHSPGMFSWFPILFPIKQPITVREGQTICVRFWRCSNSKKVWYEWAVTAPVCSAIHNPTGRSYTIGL
PRMT5, sequence (Q9BQA1 whole entry partner, species assumed): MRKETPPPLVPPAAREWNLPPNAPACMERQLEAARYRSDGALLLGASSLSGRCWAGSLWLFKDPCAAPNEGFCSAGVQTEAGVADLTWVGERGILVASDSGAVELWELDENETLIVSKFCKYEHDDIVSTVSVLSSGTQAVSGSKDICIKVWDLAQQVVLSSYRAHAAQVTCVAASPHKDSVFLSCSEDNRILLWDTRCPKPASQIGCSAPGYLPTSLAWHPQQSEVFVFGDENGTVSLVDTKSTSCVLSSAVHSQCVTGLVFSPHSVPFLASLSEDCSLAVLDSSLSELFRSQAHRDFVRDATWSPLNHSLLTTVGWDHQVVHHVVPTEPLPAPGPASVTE

T1 sequence (Q99873 with tags, fused parts or gaps): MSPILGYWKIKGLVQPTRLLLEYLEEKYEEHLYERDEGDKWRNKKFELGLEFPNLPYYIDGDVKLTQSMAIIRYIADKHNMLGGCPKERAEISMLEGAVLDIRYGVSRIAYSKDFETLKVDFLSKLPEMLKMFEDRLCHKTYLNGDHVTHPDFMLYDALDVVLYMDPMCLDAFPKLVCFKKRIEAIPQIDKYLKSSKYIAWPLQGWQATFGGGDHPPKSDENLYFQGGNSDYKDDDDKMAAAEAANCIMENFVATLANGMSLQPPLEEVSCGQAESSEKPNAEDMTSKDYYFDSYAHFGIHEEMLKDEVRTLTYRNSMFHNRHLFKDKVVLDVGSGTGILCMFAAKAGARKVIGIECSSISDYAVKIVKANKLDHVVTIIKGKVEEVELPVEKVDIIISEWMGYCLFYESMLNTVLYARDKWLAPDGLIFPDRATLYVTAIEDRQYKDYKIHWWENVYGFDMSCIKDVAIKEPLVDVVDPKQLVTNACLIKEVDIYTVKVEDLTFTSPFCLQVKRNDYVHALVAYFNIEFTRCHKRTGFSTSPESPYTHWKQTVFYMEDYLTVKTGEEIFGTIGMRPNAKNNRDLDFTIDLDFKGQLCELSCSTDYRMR

IC50 (human PRMT1) [nM] | IC50 (PRMT5) [nM] | Structure (SMILES)
21.7 |  | CNCCN(C)Cc1cccc(-c2nc(NCc3nccs3)c3cnn(C4CC4)c3n2)c1 [Compound 2]
 | 200000 | CNCCN(C)Cc1cccc(-c2nc(C(=O)NCc3cn4ccsc4n3)c3cnn(C4CC4)c3n2)c1 [Compound 180]
 | 12100 | CNCCN(C)Cc1cccc(-c2cc(C(=O)NCc3ccncc3)c3cnn(C(C)C)c3n2)c1 [Compound 182]
 | 50000 | CC(C)n1ncc2c(C(=O)N(C)CC3CCOCC3)cc(-c3cccc(CN(C)CCN)c3)nc21 [Compound 256]
 | 7730 | CN(CCN)Cc1cccc(-c2ccc(C(=O)NCC3CCOCC3)c(N(C)CC3CC3)c2)c1 [Compound 263]
 | 34300 | CNCCN(C)Cc1cccc(-c2cc(C(=O)N(C)Cc3ccccn3)c3cnn(C(C)C)c3n2)c1 [Compound 300]
4660 |  | Cc1cc(C)c(CNC(=O)c2cc(-c3ccc(CNCCN(C)C)cc3)nc3c2cnn3C(C)C)c(=O)[nH]1 [Compound 359]
104 |  | CNCCN(C)Cc1ccc(-c2cc(C(=O)NCc3c(C)cc(C)[nH]c3=O)c(C)c3n[nH]cc23)cc1 [Compound 362]
7490 | 49000 | Cc1cc(C)c(CNC(=O)c2cc(-c3cccc(CNCCN)c3)nc3c2cnn3C(C)C)c(=O)[nH]1 [Compound 365]
418 |  | CNCCN(C)Cc1ccc(-c2cc(C(=O)NCc3c(C)cc(C)[nH]c3=O)c(C)c3nn(C4CCCC4)cc23)cc1 [Compound 370]
11800 |  | Cc1cc(C)c(CNC(=O)c2cc(CNCCN(C)C)cc3c2cnn3C2CCCC2)c(=O)[nH]1 [Compound 371]
297 | 66600 | Cc1cc(C)c(CNC(=O)c2cncc(-c3ccc(CN(C)CCN(C)C)cc3)c2)c(=O)[nH]1 [Compound 378]
335 | 2120 | Cc1cc(C)c(CNC(=O)c2cncc(-c3ccc(CNCCN)cc3)c2)c(=O)[nH]1 [Compound 379]
177 |  | CNCCN(C)Cc1cccc(-c2cc(C(=O)NCCCCCC(=O)NCc3c(C)cc(C)[nH]c3=O)c3cnn(C(C)C)c3n2)c1 [Compound 382]
220 |  | CNCCN(C)Cc1cccc(-c2cc(C(=O)NCCC(=O)NCc3c(C)cc(C)[nH]c3=O)c3cnn(C(C)C)c3n2)c1 [Compound 384]
232 |  | CNCCN(C)Cc1cccc(-c2cc(C(=O)NCCCCC(=O)NCc3c(C)cc(C)[nH]c3=O)c3cnn(C(C)C)c3n2)c1 [Compound 385]
1220 | 30500 | COc1nc(C)cc(C)c1CNC(=O)c1cc(-c2cccc(CNCCN)c2)nc2c1cnn2C(C)C [Compound 391]

Structure (SMILES) | IC50 (human PRMT1) [nM] | IC50 (PRMT5) [nM]
Cc1cc(C)c(CNC(=O)c2cc(-c3cccc(CN(C)CCN)c3)nc3c2cnn3C(C)C)c(=O)[nH]1 [Compound 360] | 254 | 15400
Cc1cc(C)c(CNC(=O)c2cc(-c3cccc(CN(C)CCN(C)C)c3)nc3c2cnn3C(C)C)c(=O)[nH]1 [Compound 361] | 4270 | 
Cc1cc(C)c(CNC(=O)c2cc(-c3cccc(CNCCN)c3)cc3[nH]ncc23)c(=O)[nH]1 [Compound 366] | 2400 | 4200
CNCCN(C)Cc1cccc(-c2cc(C(=O)NCc3c(C)cc(C)[nH]c3=O)c3cnn(C(C)C)c3c2)c1 [Compound 367] | 183 | 
CNCCN(C)Cc1cccc(-c2cc(C(=O)NCc3c(C)cc(C)[nH]c3=O)c3cnn(C(C)C)c3n2)c1 [Compound 368] | 86.6 | 
CNCCN(C)Cc1cccc(-c2cc(C(=O)NCc3c(C)cc(C)[nH]c3=O)c(C)c3[nH]ncc23)c1 [Compound 372] | 59.6 | 
CNCCN(C)Cc1ccc(-c2cncc(C(=O)NCc3c(C)cc(C)[nH]c3=O)c2)cc1 [Compound 373] | 64.7 | 14700
Cc1cc(C)c(CNC(=O)c2cncc(-c3ccc(CN(C)CCN)cc3)c2)c(=O)[nH]1 [Compound 374] | 73.1 | 44300
CNCCN(C)Cc1cccc(-c2cc(C(=O)NCCCC(=O)NCc3c(C)cc(C)[nH]c3=O)c3cnn(C(C)C)c3n2)c1 [Compound 383] | 212 | 
COc1nc(C)cc(C)c1CNC(=O)c1cc(-c2cccc(CN(C)CCN(C)C)c2)nc2c1cnn2C(C)C [Compound 386] | 1610 | 
